Data: patent US20240025862A1, “SUBSTITUTED N-PHENYLURACILS AND SALTS THEREOF, AND USE THEREOF AS HERBICIDAL ACTIVE SUBSTANCES” (Bayer Aktiengesellschaft, priority 2020, published 2024)

Tests used:
Assay type in all cases: in vivo
[1] = system: Abutilon theophrasti (ABUTH); test: Post-emergence herbicidal action, greenhouse pot test; settings: rated visually after about 3 weeks vs untreated controls, 100% = plants have died
Summary of the method: (§1)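 Activity was scored by eye about 3 weeks after treatment against untreated plants, where 100% means dead plants and 0% means no difference. Plants at the one-leaf stage received a foliar spray of WP or EC formulations in water plus 0.5% additive (600 l/ha, up to 20 g/ha). Plants were grown in sandy loam pots in a greenhouse for 2–3 weeks before spraying.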

[2] = system: Amaranthus retroflexus (AMARE); test: as above; settings: rated visually after about 3 weeks vs untreated controls, 100% = plants have died
Summary of the method: as §1

Avena fatua (AVEFA) = test: as above; settings: Avena fatua, 504 h, 20 g/ha, rated visually after about 3 weeks vs untreated controls, 100% = plants have died, read-out: Post-emergence action at 20 g/ha against AVEFA in %
Summary of the method: as §1

Lolium rigidum (LOLRI) = test: as above; settings: dosage 20 g/ha
Summary of the method: as §1

[3] = system: Pharbitis purpurea (PHBPU); test: as above
Summary of the method: as §1

[4] = system: Polygonum convolvulus (POLCO); test: as above
Summary of the method: as §1

Veronica persica (VERPE) = test: as above
Summary of the method: as §1

Viola tricolor (VIOTR) = test: as above
Summary of the method: as §1

[5] = system: Alopecurus myosuroides (ALOMY); test: Post-emergence herbicidal action, greenhouse pot test (also comparative test C); settings: rated visually after about 3 weeks vs untreated controls, 100% = plants have died
Summary of the method: (§2)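 Visual rating against untreated controls, about 3 weeks after spraying, from 0% (like control) to 100% (plants dead). Weeds were treated at the one-leaf stage, 2–3 weeks after sowing in sandy loam, with aqueous WP/EC spray containing 0.5% additive at 600 l/ha. Doses were ≤20 g/ha, or ≤5 g/ha for comparative test C.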

[6] = system: Echinochloa crus-galli (ECHCG); test: as above
Summary of the method: as §2

[7] = system: Matricaria inodora (MATIN); test: as above
Summary of the method: as §2

Setaria viridis (SETVI) = test: as above
Summary of the method: as §2

Glycine max (GLXMA) = test: Post-emergence crop plant compatibility, greenhouse pot test; settings: 1.25 g/ha
Summary of the method: (§3)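 Values are visual % damage versus untreated controls (100% = plants died) about 3 weeks after treatment. Plants in sandy loam were sprayed at the one-leaf stage, 2–3 weeks after sowing, with aqueous WP/EC preparations plus 0.5% additive at 600 l/ha; a/b/c mark different dose levels.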

[8] = system: Triticum aestivum (TRZAS); test: as above; settings: vs untreated controls
Summary of the method: as §3

Oryza sativa (ORYSA) = test: Post-emergence crop plant compatibility, greenhouse pot test (also comparative test C); settings: for Post-emergence action against ORYSA (crop plant compatibility): vs untreated controls
Summary of the method: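 Visual damage versus untreated plants (0% = like control, 100% = plants died) was scored about 3 weeks after a post-emergence spray in greenhouse pots. Treatment: one-leaf stage, WP or EC in water at 600 l/ha with 0.5% additive; a/b/c mark different dosages on the same crop.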

Zea mays (ZEAMX) = test: Post-emergence crop plant compatibility, greenhouse pot test; settings: 1.25 g/ha, vs untreated controls
Summary of the method: as §3

CC(C#N)OC(=O)COc1ccccc1Oc1cc(-n2c(=O)cc(C(F)(F)F)n(C)c2=O)c(F)cc1Cl (centres unmarked) [I.7-177, 1-Cyanoethyl (2-{2-chloro-4-fluoro-5-[3-methyl-2,6-dioxo-4-(trifluoromethyl)-3,6-dihydropyrimidin-1(2H)-yl]phenoxy}phenoxy)acetate]
pest or weed control at 1.25 g/ha ([1]; Abutilon theophrasti, 504 h, 1.25 g/ha, read-out: Post-emergence action at 1.25 g/ha against ABUTH in %): 100%
pest or weed control at 5 g/ha ([1]; Abutilon theophrasti, 504 h, 5 g/ha, read-out: Post-emergence action at 5 g/ha against ABUTH in %): 100%
pest or weed control at 20 g/ha ([1]; Abutilon theophrasti, 504 h, 20 g/ha, read-out: Post-emergence action at 20 g/ha against ABUTH in %): 100%
pest or weed control at 1.25 g/ha ([2]; Amaranthus retroflexus, 504 h, 1.25 g/ha, read-out: Post-emergence action at 1.25 g/ha against AMARE in %): 100%
pest or weed control at 5 g/ha ([2]; Amaranthus retroflexus, 504 h, 5 g/ha, read-out: Post-emergence action at 5 g/ha against AMARE in %): 100%
pest or weed control at 20 g/ha ([2]; Amaranthus retroflexus, 504 h, 20 g/ha, read-out: Post-emergence action at 20 g/ha against AMARE in %): 100%
pest or weed control at 20 g/ha (Avena fatua (AVEFA)): 80%
pest or weed control at 20 g/ha (Lolium rigidum (LOLRI); Lolium rigidum, 504 h, read-out: Post-emergence action against LOLRI in %): 80%
pest or weed control at 1.25 g/ha ([3]; Ipomoea purpurea, 504 h, dosage 1.25 g/ha, read-out: Post-emergence action against PHBPU in %): 90%
pest or weed control at 5 g/ha ([3]; Ipomoea purpurea, 504 h, dosage 5 g/ha, read-out: Post-emergence action against PHBPU in %): 100%
pest or weed control at 20 g/ha ([3]; Ipomoea purpurea, 504 h, dosage 20 g/ha, read-out: Post-emergence action against PHBPU in %): 100%
pest or weed control at 5 g/ha ([4]; Fallopia convolvulus, 504 h, dosage 5 g/ha, read-out: Post-emergence action against POLCO in %): 80%
pest or weed control at 20 g/ha ([4]; Fallopia convolvulus, 504 h, dosage 20 g/ha, read-out: Post-emergence action against POLCO in %): 100%
pest or weed control at 1.25 g/ha (Veronica persica (VERPE); Veronica persica, 504 h, 1.25 g/ha, read-out: Post-emergence action against VERPE): 90%
pest or weed control at 5 g/ha (Veronica persica (VERPE); Veronica persica, 504 h, 5 g/ha, read-out: Post-emergence action against VERPE): 100%
pest or weed control at 20 g/ha (Veronica persica (VERPE); Veronica persica, 504 h, 20 g/ha, read-out: Post-emergence action against VERPE): 100%
pest or weed control at 1.25 g/ha (Viola tricolor (VIOTR); Viola tricolor, 504 h, 1.25 g/ha, read-out: Post-emergence action against VIOTR): 100%
pest or weed control at 5 g/ha (Viola tricolor (VIOTR); Viola tricolor, 504 h, 5 g/ha, read-out: Post-emergence action against VIOTR): 100%
pest or weed control at 20 g/ha (Viola tricolor (VIOTR); Viola tricolor, 504 h, 20 g/ha, read-out: Post-emergence action against VIOTR): 100%
pest or weed control at 5 g/ha ([5]; Alopecurus myosuroides, 504 h, 5 g/ha, read-out: Post-emergence action at 5 g/ha against ALOMY in %): 90%
pest or weed control at 20 g/ha ([5]; Alopecurus myosuroides, 504 h, 20 g/ha, read-out: Post-emergence action at 20 g/ha against ALOMY in %): 100%
pest or weed control at 5 g/ha ([6]; Echinochloa crus-galli, 504 h, dosage 5 g/ha, read-out: Post-emergence action against ECHCG in %): 100%
pest or weed control at 20 g/ha ([6]; Echinochloa crus-galli, 504 h, dosage 20 g/ha, read-out: Post-emergence action against ECHCG in %): 100%
pest or weed control at 1.25 g/ha ([7]; Tripleurospermum inodorum, 504 h, dosage 1.25 g/ha, read-out: Post-emergence action against MATIN in %): 80%
pest or weed control at 5 g/ha ([7]; Tripleurospermum inodorum, 504 h, dosage 5 g/ha, read-out: Post-emergence action against MATIN in %): 80%
pest or weed control at 20 g/ha ([7]; Tripleurospermum inodorum, 504 h, dosage 20 g/ha, read-out: Post-emergence action against MATIN in %): 80%
pest or weed control at 20 g/ha (Setaria viridis (SETVI); Setaria viridis, 504 h, 20 g/ha, read-out: Post-emergence action against SETVI): 100%
pest or weed control at 1.25 g/ha (Setaria viridis (SETVI); Setaria viridis, 504 h, dosage 1.25 g/ha, read-out: Post-emergence action against SETVI in %): 100%
pest or weed control at 5 g/ha (Setaria viridis (SETVI); Setaria viridis, 504 h, dosage 5 g/ha, read-out: Post-emergence action against SETVI in %): 100%
Post-emergence action against GLXMA in % (Glycine max (GLXMA)): 0%
Post-emergence action against TRZAS (crop plant compatibility) ([8]; 1.25 g/ha): 0%
Post-emergence action against ORYSA (crop plant compatibility) (Oryza sativa (ORYSA); 1.25 g/ha): 0%

CCOCCOC(=O)COc1ccccc1Oc1cc(-n2c(=O)cc(C(F)(F)F)n(C)c2=O)c(F)cc1[N+](=O)[O-] [I.6-2]
Post-emergence action at 1.25 g/ha against ABUTH in % ([1]; 1.25 g/ha): 100%
Post-emergence action at 5 g/ha against ABUTH in % ([1]; 5 g/ha): 100%
Post-emergence action at 20 g/ha against ABUTH in % ([1]; 20 g/ha): 100%
Post-emergence action at 1.25 g/ha against AMARE in % ([2]; 1.25 g/ha): 100%
Post-emergence action at 5 g/ha against AMARE in % ([2]; 5 g/ha): 100%
Post-emergence action at 20 g/ha against AMARE in % ([2]; 20 g/ha): 100%
Post-emergence action against LOLRI in % (Lolium rigidum (LOLRI)): 90%
Post-emergence action against PHBPU in % ([3]; dosage 1.25 g/ha): 100%
Post-emergence action against PHBPU in % ([3]; dosage 5 g/ha): 100%
Post-emergence action against PHBPU in % ([3]; dosage 20 g/ha): 100%
Post-emergence action against POLCO in % ([4]; dosage 5 g/ha): 100%
Post-emergence action against POLCO in % ([4]; dosage 20 g/ha): 100%
Post-emergence action against VERPE (Veronica persica (VERPE); 1.25 g/ha): 100%
Post-emergence action against VERPE (Veronica persica (VERPE); 5 g/ha): 100%
Post-emergence action against VERPE (Veronica persica (VERPE); 20 g/ha): 100%
Post-emergence action against VIOTR (Viola tricolor (VIOTR); 1.25 g/ha): 100%
Post-emergence action against VIOTR (Viola tricolor (VIOTR); 5 g/ha): 100%
Post-emergence action against VIOTR (Viola tricolor (VIOTR); 20 g/ha): 100%
Post-emergence action at 20 g/ha against ALOMY in % ([5]; 20 g/ha): 90%
Post-emergence action against ECHCG in % ([6]; dosage 5 g/ha): 90%
Post-emergence action against ECHCG in % ([6]; dosage 20 g/ha): 100%
Post-emergence action against MATIN in % ([7]; dosage 5 g/ha): 90%
Post-emergence action against MATIN in % ([7]; dosage 20 g/ha): 100%
Post-emergence action against SETVI (Setaria viridis (SETVI); 20 g/ha): 100%
Post-emergence action against SETVI in % (Setaria viridis (SETVI); dosage 1.25 g/ha): 100%
Post-emergence action against SETVI in % (Setaria viridis (SETVI); dosage 5 g/ha): 100%
Post-emergence action against GLXMA in % (Glycine max (GLXMA)): 20%
Post-emergence action against TRZAS (crop plant compatibility) ([8]; 1.25 g/ha): 20%
Post-emergence action against TRZAS (crop plant compatibility) ([8]; 5 g/ha): 20%
Post-emergence action against ZEAMX (crop plant compatibility) (Zea mays (ZEAMX)): 20%
Post-emergence action against ORYSA (crop plant compatibility) (Oryza sativa (ORYSA); 1.25 g/ha): 0%
Post-emergence action against ORYSA (crop plant compatibility) (Oryza sativa (ORYSA); 5 g/ha): 0%
Post-emergence action against ORYSA in % (Oryza sativa (ORYSA); 20 g/ha, crop plant compatibility): 20%
